Assay results reported in paper PMC10351190, “Isolation and identification of active ingredients and biological activity of Dioscorea nipponica Makino” (BMC Complementary Medicine and Therapies, 2023).

target: T1, α-glucosidase; experiment: pNPG hydrolysis, absorbance […] nm; type: biochemical; conditions: pNPG substrate ([…] stock), pH […] °C, […] phosphate
T1 construct: gene MAL12

Row | Compound | IC50 [µM]
1 | O=C(O)c1c(O)cc(O)cc1C[C@H](O)c1ccccc1 [compound 2, diosniponol C] | > 800
2 | O=C(/C=C/C=C/c1ccc(O)cc1)CCc1ccc(O)cc1 [compound 3, 1,7-bis(4-hydroxyphenyl)hepta-4E,6E-dien-3-one] | 1.6 ± 0.17
3 | COc1cc2c(ccc3cc(O)cc(OC)c32)cc1O [compound 4, 3,5-dimethoxyphenanthrene-2,7-diol] | 31.4 ± 0.18
4 | COc1cc(C(=O)O)ccc1O [compound 7, vanillic acid] | > 800
5 | COc1cc2c(ccc3c(-c4c(O)cc(OC)c5c4ccc4cc(O)c(OC)cc45)c(O)cc(OC)c32)cc1O [compound 8, 2,2',7,7'-tetrahydroxy-4,4',6,6'-tetramethoxy-1,1'-biphenanthrenes] | > 800

Results, then the compound that gave them:

Row | IC50 [µM] | Compound
6 | > 800 | O=c1cc(-c2ccc(O)cc2)oc2cc(O)cc(O)c12 [compound 9, apigenin]
7 | > 800 | COc1c(O)cc(C[C@H](O)c2ccccc2)c(C(=O)O)c1O [compound 1, diosniposide E]
8 | > 800 | COC(=O)c1cc(O)c(O)c(O)c1 [compound 6, methyl gallate]
9 | > 800 | O=C(O)c1cc(O)c(O)c(O)c1 [compound 5, gallic acid]
